Where a name gives a salt, the structure may show the parent alone.
Legend:
[1] = Aqueous solubility determined gravimetrically by slurrying in water; assay type: physicochemical
Protocol: Aqueous solubility was determined gravimetrically by slurrying Eliglustat hydrochloride from example 1 in water at 22°C. The pH of Eliglustat HCl in water was 7.6. A filtered aliquot was transferred to a pre-weighed vial and the solution evaporated.

[2] = Storage stability of the crystalline form, XRPD analysis after storage; assay type: physicochemical; settings: stored for one week at 40°C / 75% relative humidity
Protocol: XRPD analyses were performed on crystalline eliglustat hydrochloride from example 1 using a Panalytical Xpert Pro diffractometer equipped with a Cu X-ray tube and a Pixcel detector system. The isothermal samples were analysed in transmission mode and held between low density polyethylene films. The following XRPD program was used: range 3-40°2θ, step size 0.013°, counting time 99sec, ∼22min run time.
Crystalline eliglustat hydrochloride from example 1 was stored for one week at 40°C / 75% relative humidity.

solubility ([1]; pH 7.6, thermodynamic from solid, water, 22°C, gravimetric, pH in water 7.6): 33 mg/mL
pH of Eliglustat HCl in water ([1]; slurry in water at 22°C): 7.6
Compound: CCCCCCCC(=O)N[C@H](CN1CCCC1)[C@H](O)c1ccc2c(c1)OCCO2 [Eliglustat hydrochloride, (1R,2R)-octanoic acid[2-(2',3'-dihydro-benzo[1,4]dioxin-6'-yl)-2-hydroxy-1-pyrrolidin-1-ylmethyl-ethyl]-amide]
stability of crystalline form after storage (XRPD) [2]: remained stable with regard to its crystalline form

— patent EP3283483B1, “CRYSTALLINE ELIGLUSTAT HYDROCHLORIDE” (Sandoz AG, priority 2015, dated 2016)
